Experimental data published in the supplement of paper PMC10307832.

Assays:
Experiment in all cases: relative viability (nuclei count vs DMSO), 5 days (fraction); higher = more cells survive
EBC-1 = test system: EBC-1
Method in brief: (§1)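 Relative viability equals treated-well nuclei counts divided by vehicle-well nuclei counts. Counts came from 4× images of lung cancer cell lines grown in 1536-well plates for 5 days after pin-tool dosing on the day after seeding. Dosing used one drug alone or a fixed anchor-drug dose plus five library-drug doses (not always all listed) in √10 steps, and values are medians of duplicate plates.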

HCC-366 = test system: HCC-366
Method in brief: as §1

NCI-H1703 = test system: NCI-H1703
Method in brief: as §1

LXF-289 = test system: LXF-289
Method in brief: as §1

A549 = test system: A549
Method in brief: as §1

HCC-44 = test system: HCC-44
Method in brief: as §1

LOU-NH91 = test system: LOU-NH91
Method in brief: as §1

NCI-H3122 = test system: NCI-H3122
Method in brief: as §1

NCI-H1299 = test system: NCI-H1299
Method in brief: as §1

NCI-H2085 = test system: NCI-H2085
Method in brief: as §1

IA-LM = test system: IA-LM
Method in brief: as §1

Calu-6 = test system: Calu-6
Method in brief: as §1

NCI-H1437 = test system: NCI-H1437
Method in brief: as §1

`Nc1ccn([C@@H]2O[C@H](CO)[C@@H](O)[C@@H]2O)c(=O)n1` [Cytarabine] + Cc1nc(NC(=O)N2CCC[C@H]2C(N)=O)sc1-c1ccnc(C(C)(C)C(F)(F)F)c1 [Alpelisib] (partner 2 µM) gave a relative viability (EBC-1; first compound 0.005 µM) of 0.694, a relative viability (EBC-1; first compound 0.01581 µM) of 0.64 and a relative viability (EBC-1; first compound 0.05 µM) of 0.676. The relative viability (EBC-1; first compound 0.1581 µM) was 0.439, the relative viability (EBC-1; first compound 0.5 µM) was 0.248 and the relative viability (HCC-366; first compound 0.005 µM) was 0.281. The relative viability (HCC-366; first compound 0.01581 µM) was 0.228, the relative viability (HCC-366; first compound 0.05 µM) was 0.104 and the relative viability (HCC-366; first compound 0.1581 µM) was 0.047. The relative viability (HCC-366; first compound 0.5 µM) was 0.019, the relative viability (NCI-H1703; first compound 0.005 µM) was 0.294 and the relative viability (NCI-H1703; first compound 0.01581 µM) was 0.22. It also gave a relative viability (NCI-H1703; first compound 0.05 µM) of 0.194, a relative viability (NCI-H1703; first compound 0.1581 µM) of 0.117 and a relative viability (NCI-H1703; first compound 0.5 µM) of 0.143. For the same molecule, the relative viability (LXF-289; first compound 0.005 µM) was 1.02, the relative viability (LXF-289; first compound 0.01581 µM) was 1.05 and the relative viability (LXF-289; first compound 0.05 µM) was 0.764. The relative viability (LXF-289; first compound 0.1581 µM) was 0.356, the relative viability (LXF-289; first compound 0.5 µM) was 0.268 and the relative viability (A549; first compound 0.005 µM) was 0.596. For the same molecule, the relative viability (A549; first compound 0.01581 µM) was 0.479, the relative viability (A549; first compound 0.05 µM) was 0.399 and the relative viability (A549; first compound 0.1581 µM) was 0.0482. For the same molecule, the relative viability (A549; first compound 0.5 µM) was 0.0328, the relative viability (HCC-44; first compound 0.005 µM) was 0.806 and the relative viability (HCC-44; first compound 0.01581 µM) was 0.726. For the same molecule, the relative viability (HCC-44; first compound 0.05 µM) was 0.586, the relative viability (HCC-44; first compound 0.1581 µM) was 0.429 and the relative viability (HCC-44; first compound 0.5 µM) was 0.517. The relative viability (LOU-NH91; first compound 0.005 µM) was 0.708, the relative viability (LOU-NH91; first compound 0.01581 µM) was 0.695 and the relative viability (LOU-NH91; first compound 0.05 µM) was 0.603. The relative viability (LOU-NH91; first compound 0.1581 µM) was 0.425, the relative viability (LOU-NH91; first compound 0.5 µM) was 0.462 and the relative viability (NCI-H3122; first compound 0.005 µM) was 0.673. The relative viability (NCI-H3122; first compound 0.01581 µM) was 0.699, the relative viability (NCI-H3122; first compound 0.05 µM) was 0.772 and the relative viability (NCI-H3122; first compound 0.1581 µM) was 0.464. For the same molecule, the relative viability (NCI-H3122; first compound 0.5 µM) was 0.424, the relative viability (NCI-H1299; first compound 0.005 µM) was 1.13 and the relative viability (NCI-H1299; first compound 0.01581 µM) was 1.21. For the same molecule, the relative viability (NCI-H1299; first compound 0.05 µM) was 1.13, the relative viability (NCI-H1299; first compound 0.1581 µM) was 1 and the relative viability (NCI-H1299; first compound 0.5 µM) was 1.06. It also gave a relative viability (NCI-H2085; first compound 0.005 µM) of 0.936, a relative viability (NCI-H2085; first compound 0.01581 µM) of 0.827 and a relative viability (NCI-H2085; first compound 0.05 µM) of 0.869. The relative viability (NCI-H2085; first compound 0.1581 µM) was 0.62, the relative viability (NCI-H2085; first compound 0.5 µM) was 0.558 and the relative viability (IA-LM; first compound 0.005 µM) was 0.784. The relative viability (IA-LM; first compound 0.01581 µM) was 0.591, the relative viability (IA-LM; first compound 0.05 µM) was 0.701 and the relative viability (IA-LM; first compound 0.1581 µM) was 0.259. It also gave a relative viability (IA-LM; first compound 0.5 µM) of 0.114, a relative viability (Calu-6; first compound 0.005 µM) of 0.925 and a relative viability (Calu-6; first compound 0.01581 µM) of 0.826. It also gave a relative viability (Calu-6; first compound 0.05 µM) of 0.79, a relative viability (Calu-6; first compound 0.1581 µM) of 0.483 and a relative viability (Calu-6; first compound 0.5 µM) of 0.288. The relative viability (NCI-H1437; first compound 0.005 µM) was 0.666, the relative viability (NCI-H1437; first compound 0.01581 µM) was 0.631 and the relative viability (NCI-H1437; first compound 0.05 µM) was 0.43. For the same molecule, the relative viability (NCI-H1437; first compound 0.1581 µM) was 0.237 and the relative viability (NCI-H1437; first compound 0.5 µM) was 0.151.
Work on `CC(=O)O[C@@]12CO[C@@H]1C[C@H](O)[C@@]1(C)C(=O)[C@H](O)C3=C(C)[C@@H](OC(=O)[C@H](O)[C@@H](NC(=O)OC(C)(C)C)c4ccccc4)C[C@@](O)([C@@H](OC(=O)c4ccccc4)[C@H]21)C3(C)C` [Docetaxel] + CC1(C)CCC(c2ccc(Cl)cc2)=C(CN2CCN(c3ccc(C(=O)NS(=O)(=O)c4ccc(N[C@H](CCN5CCOCC5)CSc5ccccc5)c(S(=O)(=O)C(F)(F)F)c4)cc3)CC2)C1 [Navitoclax] (partner 0.5 µM) yielded a relative viability (EBC-1; first compound 0.0002 µM) of 0.259, a relative viability (EBC-1; first compound 0.000632 µM) of 0.27 and a relative viability (EBC-1; first compound 0.002 µM) of 0.152. The relative viability (EBC-1; first compound 0.006325 µM) was 0.206, the relative viability (EBC-1; first compound 0.02 µM) was 0.124 and the relative viability (HCC-366; first compound 0.0002 µM) was 1.03. It also gave a relative viability (HCC-366; first compound 0.000632 µM) of 0.969, a relative viability (HCC-366; first compound 0.002 µM) of 0.0411 and a relative viability (HCC-366; first compound 0.006325 µM) of 0.0211. For the same molecule, the relative viability (HCC-366; first compound 0.02 µM) was 0.0135, the relative viability (NCI-H1703; first compound 0.0002 µM) was 1.07 and the relative viability (NCI-H1703; first compound 0.000632 µM) was 0.551. The relative viability (NCI-H1703; first compound 0.006325 µM) was 0.129, the relative viability (NCI-H1703; first compound 0.02 µM) was 0.108 and the relative viability (LXF-289; first compound 0.0002 µM) was 0.96. It also gave a relative viability (LXF-289; first compound 0.000632 µM) of 0.796, a relative viability (LXF-289; first compound 0.002 µM) of 0.585 and a relative viability (LXF-289; first compound 0.006325 µM) of 0.142. It also gave a relative viability (LXF-289; first compound 0.02 µM) of 0.0718, a relative viability (A549; first compound 0.0002 µM) of 0.985 and a relative viability (A549; first compound 0.000632 µM) of 0.245. For the same molecule, the relative viability (A549; first compound 0.002 µM) was 0.055, the relative viability (A549; first compound 0.006325 µM) was 0.0522 and the relative viability (A549; first compound 0.02 µM) was 0.0365. For the same molecule, the relative viability (HCC-44; first compound 0.0002 µM) was 0.962, the relative viability (HCC-44; first compound 0.000632 µM) was 0.934 and the relative viability (HCC-44; first compound 0.002 µM) was 0.362. The relative viability (HCC-44; first compound 0.006325 µM) was 0.242, the relative viability (HCC-44; first compound 0.02 µM) was 0.149 and the relative viability (LOU-NH91; first compound 0.0002 µM) was 0.784. The relative viability (LOU-NH91; first compound 0.000632 µM) was 0.512, the relative viability (LOU-NH91; first compound 0.002 µM) was 0.332 and the relative viability (LOU-NH91; first compound 0.006325 µM) was 0.279. It also gave a relative viability (LOU-NH91; first compound 0.02 µM) of 0.222, a relative viability (NCI-H3122; first compound 0.0002 µM) of 0.996 and a relative viability (NCI-H3122; first compound 0.000632 µM) of 1. For the same molecule, the relative viability (NCI-H3122; first compound 0.002 µM) was 0.895, the relative viability (NCI-H3122; first compound 0.006325 µM) was 0.376 and the relative viability (NCI-H3122; first compound 0.02 µM) was 0.168. The relative viability (NCI-H1299; first compound 0.0002 µM) was 1.05, the relative viability (NCI-H1299; first compound 0.000632 µM) was 1.03 and the relative viability (NCI-H1299; first compound 0.002 µM) was 0.938. For the same molecule, the relative viability (NCI-H1299; first compound 0.006325 µM) was 0.526, the relative viability (NCI-H1299; first compound 0.02 µM) was 0.351 and the relative viability (NCI-H2085; first compound 0.0002 µM) was 1.05. For the same molecule, the relative viability (NCI-H2085; first compound 0.000632 µM) was 1.03, the relative viability (NCI-H2085; first compound 0.002 µM) was 0.68 and the relative viability (NCI-H2085; first compound 0.006325 µM) was 0.476. It also gave a relative viability (NCI-H2085; first compound 0.02 µM) of 0.232, a relative viability (IA-LM; first compound 0.0002 µM) of 0.506 and a relative viability (IA-LM; first compound 0.000632 µM) of 0.172. For the same molecule, the relative viability (IA-LM; first compound 0.002 µM) was 0.0734, the relative viability (IA-LM; first compound 0.006325 µM) was 0.0267 and the relative viability (IA-LM; first compound 0.02 µM) was 0.024. The relative viability (Calu-6; first compound 0.0002 µM) was 1.02, the relative viability (Calu-6; first compound 0.000632 µM) was 0.707 and the relative viability (Calu-6; first compound 0.002 µM) was 0.111. The relative viability (Calu-6; first compound 0.006325 µM) was 0.0836, the relative viability (Calu-6; first compound 0.02 µM) was 0.0609 and the relative viability (NCI-H1437; first compound 0.0002 µM) was 1.02. The relative viability (NCI-H1437; first compound 0.000632 µM) was 0.644, the relative viability (NCI-H1437; first compound 0.002 µM) was 0.182 and the relative viability (NCI-H1437; first compound 0.02 µM) was 0.104.
